According to the NIST ThermoML archive (doi:10.1016/j.jct.2011.08.009):
“And” between values parts separate entries of the source, which are not always exact repeats. Equal entries are not always repeated. Numbers after ± are expanded uncertainties.

Conditions: Liquid, Closed cell (Static) method

**Q.** What does the source list for `CCC(C)N` (stereo unspecified) [2-butanamine]?
**A.** vapor or sublimation pressure (274.06 K): 6.81 ± 0.027 kPa; vapor or sublimation pressure (274.09 K): 6.804 ± 0.027 kPa; vapor or sublimation pressure (283.91 K): 11.46 ± 0.038 kPa; vapor or sublimation pressure (293.15 K): 18.43 ± 0.084 kPa; vapor or sublimation pressure (293.88 K): 19.21 ± 0.056 kPa; vapor or sublimation pressure (303.15 K): 29.11 ± 0.12 kPa; vapor or sublimation pressure (303.84 K): 30.04 ± 0.081 kPa and 30.03 ± 0.081 kPa; vapor or sublimation pressure (313.15 K): 44.25 ± 0.18 kPa; vapor or sublimation pressure (313.81 K): 45.47 ± 0.12 kPa and 45.38 ± 0.12 kPa; vapor or sublimation pressure (323.15 K): 65.05 ± 0.26 kPa; vapor or sublimation pressure (323.92 K): 66.77 ± 0.16 kPa; vapor or sublimation pressure (333.15 K): 92.82 ± 0.36 kPa; vapor or sublimation pressure (333.91 K): 95.07 ± 0.22 kPa and 95.08 ± 0.22 kPa and 95.1 ± 0.22 kPa; vapor or sublimation pressure (343.15 K): 128.99 ± 0.5 kPa; vapor or sublimation pressure (343.86 K): 132.08 ± 0.3 kPa and 132.05 ± 0.3 kPa; vapor or sublimation pressure (353.15 K): 175.09 ± 0.67 kPa; vapor or sublimation pressure (353.9 K): 179.16 ± 0.39 kPa and 178.99 ± 0.39 kPa; vapor or sublimation pressure (363.15 K): 232.69 ± 0.88 kPa

**Q.** What does the source list for `O` [water]?
**A.** vapor or sublimation pressure (273.15 K): 0.5817 ± 0.014 kPa; vapor or sublimation pressure (283.15 K): 1.186 ± 0.021 kPa; vapor or sublimation pressure (293.15 K): 2.281 ± 0.023 kPa; vapor or sublimation pressure (303.15 K): 4.172 ± 0.029 kPa; vapor or sublimation pressure (313.15 K): 7.294 ± 0.039 kPa; vapor or sublimation pressure (323.15 K): 12.25 ± 0.055 kPa; vapor or sublimation pressure (333.15 K): 19.84 ± 0.08 kPa; vapor or sublimation pressure (343.15 K): 31.11 ± 0.12 kPa; vapor or sublimation pressure (353.15 K): 47.37 ± 0.17 kPa; vapor or sublimation pressure (363.15 K): 70.25 ± 0.24 kPa

**Q.** What does the source list for `NC1CCCCC1` [cyclohexylamine]?
**A.** vapor or sublimation pressure (273.15 K): 0.2306 ± 0.011 kPa; vapor or sublimation pressure (274.3 K): 0.2512 ± 0.0031 kPa; vapor or sublimation pressure (283.15 K): 0.4646 ± 0.013 kPa; vapor or sublimation pressure (283.86 K): 0.4861 ± 0.005 kPa; vapor or sublimation pressure (293.15 K): 0.8833 ± 0.018 kPa; vapor or sublimation pressure (293.83 K): 0.9213 ± 0.0085 kPa; vapor or sublimation pressure (293.86 K): 0.9213 ± 0.0085 kPa; vapor or sublimation pressure (293.88 K): 0.9229 ± 0.0085 kPa and 0.9217 ± 0.0085 kPa; vapor or sublimation pressure (303.15 K): 1.596 ± 0.021 kPa; vapor or sublimation pressure (303.79 K): 1.661 ± 0.011 kPa; vapor or sublimation pressure (303.82 K): 1.66 ± 0.011 kPa; vapor or sublimation pressure (303.84 K): 1.661 ± 0.011 kPa; vapor or sublimation pressure (313.15 K): 2.756 ± 0.024 kPa; vapor or sublimation pressure (313.79 K): 2.852 ± 0.014 kPa; vapor or sublimation pressure (313.81 K): 2.854 ± 0.014 kPa; vapor or sublimation pressure (323.15 K): 4.573 ± 0.03 kPa; vapor or sublimation pressure (323.92 K): 4.755 ± 0.018 kPa; vapor or sublimation pressure (323.97 K): 4.757 ± 0.018 kPa; vapor or sublimation pressure (323.99 K): 4.757 ± 0.018 kPa and 4.758 ± 0.018 kPa; vapor or sublimation pressure (333.15 K): 7.32 ± 0.039 kPa; vapor or sublimation pressure (334 K): 7.563 ± 0.025 kPa; vapor or sublimation pressure (343.15 K): 11.35 ± 0.052 kPa; vapor or sublimation pressure (344 K): 12.08 ± 0.035 kPa; vapor or sublimation pressure (353.15 K): 17.98 ± 0.073 kPa; vapor or sublimation pressure (354.06 K): 17.65 ± 0.048 kPa; vapor or sublimation pressure (363.15 K): 25.06 ± 0.095 kPa; vapor or sublimation pressure (364.1 K): 25.96 ± 0.064 kPa; vapor or sublimation pressure (364.13 K): 25.94 ± 0.064 kPa and 25.96 ± 0.064 kPa
